Converted amounts (≈) assume the structure as drawn.
What was measured:
Format in all cases: cell-based
E. Coli ATCC BAA-200 = assay: MIC, broth microdilution (CLSI), E. Coli ATCC BAA-200; conditions: Escherichia coli, ATCCBAA200; E. Coli ATCC BAA-200, SHV-4, ESBL producing strain; 5×10^5 cfu/mL; cation-adjusted Iso-Sensitest broth containing human Apo-transferrin; read-out: Minimum Inhibitory Concentration (MIC)
Method: (§1) Compound (I) of the present invention was evaluated for in vitro antimicrobial activity thereof.
(§2) Measurement of Minimum Inhibitory Concentration (MIC: μg/mL) was conducted according to CLSI (Clinical and Laboratory Standards Institute) method, and the amount of bacteria for inoculation was 5×10^5 cfu/mL, and cation-adjusted Iso-Sensitest broth containing human Apo-transferrin was used as a test medium, and the experiment was conducted using broth microdilution method.

E. cloacae 1481026 = assay: MIC, broth microdilution (CLSI), E. cloacae 1481026; conditions: Enterobacter cloacae, 5×10^5 cfu/mL, cation-adjusted Iso-Sensitest broth containing human Apo-transferrin, read-out: Minimum Inhibitory Concentration (MIC)
Method: as §1, §2

A. baumannii 1484820 = assay: MIC, broth microdilution (CLSI), A. baumannii 1484820; conditions: Acinetobacter baumannii, 5×10^5 cfu/mL, cation-adjusted Iso-Sensitest broth containing human Apo-transferrin, read-out: Minimum Inhibitory Concentration (MIC)
Method: as §1, §2

E. Coli ATCC BAA-196 = assay: MIC, broth microdilution (CLSI), E. Coli ATCC BAA-196; conditions: Escherichia coli, ATCCBAA196; E. Coli ATCC BAA-196, TEM-10, ESBL producing strain; 5×10^5 cfu/mL; cation-adjusted Iso-Sensitest broth containing human Apo-transferrin; read-out: Minimum Inhibitory Concentration (MIC)
Method: as §1, §2

P. aeruginosa 378057 = assay: MIC, broth microdilution (CLSI), P. aeruginosa 378057; conditions: Pseudomonas aeruginosa, 5×10^5 cfu/mL, cation-adjusted Iso-Sensitest broth containing human Apo-transferrin, read-out: Minimum Inhibitory Concentration (MIC)
Method: as §1, §2

Compound	MIC (E. Coli ATCC BAA-200)	MIC (E. cloacae 1481026)	MIC (A. baumannii 1484820)	MIC (E. Coli ATCC BAA-196)	MIC (P. aeruginosa 378057)
CC[N+](CC)(CCN1C(=O)c2ccc(O)c(O)c2C1=O)CC1=C(c2nn[nH]n2)N2C(=O)[C@@H](NC(=O)/C(=N\OC(C)(C)C(=O)O)c3csc(N)n3)[C@H]2SC1.[Na+] [Compound I-19]	0.063 µg/mL	0.5 µg/mL	0.25 µg/mL	0.063 µg/mL	≤ 0.031 µg/mL
CC(C)(O/N=C(\C(=O)N[C@@H]1C(=O)N2C(C(=O)[O-])=C(C[N+]34CCC(CNC(=O)C(=O)c5cc(O)c(O)c(F)c5)(CC3)CC4)CS[C@H]12)c1csc(N)n1)C(=O)[O-].[Na+] [Compound I-20]	0.25 µg/mL	2 µg/mL	4 µg/mL	0.063 µg/mL	≤ 0.031 µg/mL
CC(C)(O/N=C(\C(=O)N[C@@H]1C(=O)N2C(C(=O)[O-])=C(C[N+]34CCC(Cn5ncc6cc(O)c(O)cc6c5=O)(CC3)C4)CS[C@H]12)c1csc(N)n1)C(=O)[O-].[Na+] [Compound I-22]	0.125 µg/mL	1 µg/mL	1 µg/mL	≤ 0.031 µg/mL	≤ 0.031 µg/mL
CC[N+](CC)(CCN1C(=O)c2ccc(O)c(O)c2C1=O)CC1=C(C(=O)[O-])N2C(=O)[C@@H](NC(=O)/C(=N\OC(C)(C)C(=O)[O-])c3csc(N)n3)[C@H]2SC1.[Na+] [Compound I-17]	0.063 µg/mL	0.5 µg/mL	0.5 µg/mL	0.063 µg/mL	≤ 0.031 µg/mL
CC(C)(O/N=C(\C(=O)N[C@@H]1C(=O)N2C(C(=O)O)=C(C[N+]34CCC(CN5C(=O)c6ccc(O)c(O)c6C5=O)(CC3)CC4)CS[C@H]12)c1csc(N)n1)C(=O)[O-] [Compound I-5]	0.25 µg/mL (≈ 0.325 µM)	16 µg/mL (≈ 20.8 µM)	1 µg/mL (≈ 1.3 µM)	0.25 µg/mL (≈ 0.325 µM)	≤ 0.031 µg/mL
CC[N+](CC)(CCN1C(=O)c2ccc(O)c(O)c2C1=O)CC1=C(C(=O)[O-])N2C(=O)[C@@H](NC(=O)/C(=N\O[C@@H](CC(=O)[O-])C(=O)[O-])c3csc(N)n3)[C@H]2SC1.[Na+].[Na+] [Compound I-18]	0.063 µg/mL	0.5 µg/mL	0.25 µg/mL	0.063 µg/mL	≤ 0.031 µg/mL

More lines, now with the values ahead:

MIC (E. Coli ATCC BAA-200)	MIC (E. cloacae 1481026)	MIC (A. baumannii 1484820)	MIC (E. Coli ATCC BAA-196)	MIC (P. aeruginosa 378057)	Compound
0.25 µg/mL (≈ 0.356 µM)	4 µg/mL (≈ 5.7 µM)	0.5 µg/mL (≈ 0.713 µM)	0.125 µg/mL (≈ 0.178 µM)	0.063 µg/mL (≈ 0.0898 µM)	CC(C)(O/N=C(\C(=O)N[C@@H]1C(=O)N2C(C(=O)O)=C(C[N+]3(Cc4noc5cc(O)c(O)cc45)CCCC3)CS[C@H]12)c1csc(N)n1)C(=O)[O-] [Compound I-9]
0.125 µg/mL (≈ 0.161 µM)	–	0.25 µg/mL (≈ 0.321 µM)	0.125 µg/mL (≈ 0.161 µM)	0.063 µg/mL (≈ 0.081 µM)	CC(C)(O/N=C(\C(=O)N[C@@H]1C(=O)N2C(C(=O)O)=C(C[N+]3(CCN4C(=O)c5c(Cl)cc(O)c(O)c5C4=O)CCCC3)CS[C@H]12)c1csc(N)n1)C(=O)[O-] [Compound I-3]
0.063 µg/mL (≈ 0.0785 µM)	0.5 µg/mL (≈ 0.623 µM)	0.125 µg/mL (≈ 0.156 µM)	≤ 0.031 µg/mL	≤ 0.031 µg/mL	CC(C)(O/N=C(\C(=O)N[C@@H]1C(=O)N2C(c3nnn[nH]3)=C(C[N+]3(CCN4C(=O)c5ccc(O)c(O)c5C4=O)CCCC3)CS[C@H]12)c1nc(N)sc1Cl)C(=O)[O-] [Compound I-14]
0.125 µg/mL	0.5 µg/mL	0.25 µg/mL	0.125 µg/mL	0.063 µg/mL	CC(C)(O/N=C(\C(=O)N[C@@H]1C(=O)N2C(c3nnn[n-]3)=C(C[N+]3(CCN4C(=O)c5ccc(O)c(O)c5C4=O)CCCCC3)CS[C@H]12)c1csc(N)n1)C(=O)[O-].[Na+] [Compound I-15]
0.125 µg/mL (≈ 0.165 µM)	0.5 µg/mL (≈ 0.66 µM)	0.25 µg/mL (≈ 0.33 µM)	0.063 µg/mL (≈ 0.0831 µM)	≤ 0.031 µg/mL	CC(C)(O/N=C(\C(=O)N[C@@H]1C(=O)N2C(C(=O)O)=C(C[N+]3(CCN4C(=O)c5ccc(O)c(O)c5C4=O)CCCCC3)CS[C@H]12)c1csc(N)n1)C(=O)[O-] [Compound I-7]
0.125 µg/mL (≈ 0.163 µM)	0.5 µg/mL (≈ 0.651 µM)	0.063 µg/mL (≈ 0.0821 µM)	0.063 µg/mL (≈ 0.0821 µM)	≤ 0.031 µg/mL	CC(C)(O/N=C(\C(=O)N[C@@H]1C(=O)N2C(c3nnn[nH]3)=C(C[N+]3(CCN4C(=O)c5ccc(O)c(O)c5C4=O)CCCC3)CS[C@H]12)c1csc(N)n1)C(=O)[O-] [Compound I-11]
